Assay results: patent publication US10456398B2, “Inhibition of SGK1 in the treatment of heart conditions” (Beth Israel Deaconess Medical Center, Inc., priority 2013, dated 2019)

Assays:
[1] = molecular target: T1, SGK1 (Homo sapiens, UniProt O00141, S422D); assay: cell-based cardiomyocyte assay: SGK1-CA driven phosphorylation of GSK3β in NRVMs (immunoblot); design: species or system rat
T1 construct: expressed in transfected cells; host or cells: neonatal rat ventricular myocytes (NRVMs) infected with adenovirus Ad.SGK1-CA
T1 sequence (O00141 1-431 S422D): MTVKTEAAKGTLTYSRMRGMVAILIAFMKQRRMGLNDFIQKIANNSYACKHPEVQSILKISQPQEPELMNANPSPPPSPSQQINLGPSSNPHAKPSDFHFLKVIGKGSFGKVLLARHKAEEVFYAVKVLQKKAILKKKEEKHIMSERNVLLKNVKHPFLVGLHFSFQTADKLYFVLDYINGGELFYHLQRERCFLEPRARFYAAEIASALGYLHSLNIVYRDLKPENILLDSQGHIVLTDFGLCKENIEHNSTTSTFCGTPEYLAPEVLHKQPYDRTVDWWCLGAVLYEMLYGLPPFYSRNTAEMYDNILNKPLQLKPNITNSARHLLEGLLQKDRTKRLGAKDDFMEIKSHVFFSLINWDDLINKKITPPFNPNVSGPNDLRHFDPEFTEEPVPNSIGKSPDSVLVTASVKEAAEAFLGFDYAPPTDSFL
Protocol: (§1) These inhibitors were further characterized using a cell-based cardiomyocyte system (FIG. 3). 2×10^6 neonatal rat ventricular myocytes (NRVMs) were plated on 60 mm plates in DMEM containing 10% horse serum, 5% fetal bovine serum, 1% L-glutamine and 1% penstrep antibiotic. 24 h after plating media was changed to DMEM containing 1% L-glutamine, and 24 h following cells were infected with SGK-CA virus and treated with various concentrations of SGK inhibitors 5377051 (Compound 1A) and 6410136 (Chembridge compound catalogue #6410136). 12 h after infection and treatment, the media was changed and cells were treated again. 12 h following the second treatment NRVMs were harvested and lysed in 300 uL of cell lysis buffer (Cell Signaling) containing protease and phosphatase inhibitors and PMSF at 4 degrees C. for 1 h with shaking. Lysates were subjected to immunoblotting with an antibody against phospho […]-glycogen synthase kinase beta (p-GSK3β), a well-established SGK1 substrate. For gel electrophoresis, 50 ug of protein per well was loaded, transferred to nitrocellulose membrane, blocked, and incubated with GAPDH and P-GSK3β primary antibodies. As expected, Ad.

[2] = system: Akt; assay: cardiomyocyte assay: Akt (myr-Akt) mediated phosphorylation of GSK3β in NRVMs (immunoblot); format: cell-based, rat; details: NRVMs infected with Ad.myr-Akt, FIG. 8B, FIG. 3
Protocol: as §1, with “As expected, Ad.” left out
Because SGK1 and Akt are structurally related but have very different roles in the heart, with Akt deemed to be cardioprotective against stress, the inhibitors were assessed to determine if they have an off-target effect on Akt in CMs. […]

[3] = system: bkd−/− mutant zebrafish; assay: rescue of 2:1 AV block phenotype in breakdance (bkd−/−) mutant zebrafish; format: in vivo; design: percent rescue at peak concentration relative to morpholino: dose or concentration left out as unconfirmed
Source text: The zebrafish breakdance mutant (Bkd−/−) fish is a unique model of action potential prolongation due to a mutation in the Zerg (zebrafish HERG) channel, that recapitulates human LQT2 syndrome and has been used in high throughput screens to identify molecules that may shorten the action potential duration. The phenotypic manifestation of the prolonged QT interval in the Bkd −/− fish is the presence of functional 2:1 AV block, and previous screens have taken advantage of this easily quantifiable phenotype to screen for ‘rescue’ from 2:1 AV block.
Bkd^−/− (Breakdance) adults were crossed, and the resultant embryos were reared in E3 buffer at 25° C. 24 hours post-fertilization (hpf) animals were dechorionated with pronase and plated per well in 96-well plates in a final volume of 200 μL. At 48 hpf, compounds were added to the appropriate concentration. Zebrafish were visually scored at 72 hpf for presence or absence of 2:1 AV block. For the dose response curve, the fish at 48 hpf were treated for 24 hours at the desired concentration (from 20 mM stock in DMSO) and scored for suppression of breakdance phenotype. Genetic inhibition of SGK1 was achieved either by injection of 500 μM of SGK1 morpholino or SGK1-dominant negative mRNA at the 1-2 cell stage and the fish were scored for rescue of 2:1 AV block at the 99 hpf stage.

In the case of `O=C1NC(=S)NC(=O)C1=Cc1ccccc1OCc1ccc(Cl)cc1` [Compound 1A], the “effect on Ad.SGK1-CA induced increase in p-GSK3β” value ([1]; NRVMs infected with SGK1-CA virus, FIG. 8A, FIG. 9) is reported as “inhibited”, the “ability to inhibit SGK1 compared with EMD 638683” value ([1]; cellular assay, 10 micromolar compounds, FIG. 8C) is reported as “better or at least equivalent” and the “effect on Akt-mediated phosphorylation of GSK-3β (p-GSK3β)” value [2] is reported as “neither 5377051 nor 6410136 caused a significant inhibition”. For the same compound, the “percent rescue of 2:1 AV block phenotype” value ([3]; bkd−/− fish, compound at 45 μM) was 58%, the toxicity ([3]; bkd−/− fish, concentrations up to 50 μM) was “minimal and stable toxicity” and the “percent rescue at peak concentration relative to morpholino” value ([3]; bkd−/− zebrafish, FIG. 2) was “comparable to rescue by morpholino”. The “toxicity in the dosages tested” value ([3]; bkd−/− zebrafish, FIG. 2) was “no significant increase in toxicity”.
